Tests used:
[1] = test system: telomeric G-quadruplex; format: binding, human; details: for FRET-Q ΔTm(0.5 μM): telomeric G-quadruplex sequence, 0.5 μM compound, maximum error ± 1° C.
Protocol: (§1) 50 μL of annealed DNA and 50 μL of compound per well were put into 96-well plates and processed in a DNA Engine Opticon (MJ Research). […] The raw data were imported into Origin 7.0 (OriginLab Corp.) and the graphs smoothed using a 10-point running average and subsequently normalised. For the determination of the melting temperature, the first derivative of the smoothed melting curve was calculated.
(§2) The initial assessment of the DNA stabilisation ability of the compounds was done using FRET. Four different DNA sequences were used—a model for the human telomeric G-quadruplex, a self-complementary duplex DNA hairpin and two sequences that are present in the promoter region of the CKIT gene. A FRET competition experiment was also run in which affinity for the telomeric G-quadruplex sequence was evaluated in presence of increasing concentrations of duplex DNA. These experiments allowed us to assess the selectivity of the ligands between quadruplex and duplex DNA.

[2] = test system: ckit2 G-quadruplex; assay: FRET melting assay, ckit2 G-quadruplex; format: binding; details: ckit2 G-quadruplex sequence, 0.5 μM compound, maximum error ± 1° C.
Protocol: as §1, §2

[3] = test system: HGC-27 cells (gastric); assay: SRB toxicity assay, HGC-27; format: cell-based; details: Homo sapiens, HGC-27, 96 h
Protocol: (§3) Human cancer cell lines, breast (MCF7), lung (A549), colon (HT-29), gastric (HGC-27) and normal human lung fibroblast lines (WI-38) were purchased from American Type Cell Culture (ATCC). The GIST882 line was a gift from Dr Jonathan Fletcher. All cell lines except HGC27 and WI38 were maintained in Dulbecco's Modified Eagles Media containing 10% foetal bovine serum (Invitrogen, UK), […] hydrocortisone (Acros Chemicals, Loughborough, UK), 2 mM L-glutamine (Invitrogen, Netherlands), and non-essential amino-acids (Invitrogen, Netherlands), and incubated at 37° C., 5% CO2. The WI38 and HGC27 lines were maintained in minimum essential medium, prepared as above. All cell lines were routinely passaged at a ratio of 1:6.
(§4) Short-term growth inhibition was measured using the SRB assay as described previously. Briefly, cells were seeded (4000 cells/wells) into the wells of 96 well-plates in appropriate medium and incubated overnight to allow the cells to attach. Subsequently cells were exposed to freshly-made solutions of drugs and incubated for a further 96 h. Following this the cells were fixed with ice cold trichlo-acetic acid (TCA) (10%, w/v) for 30 min and stained with 0.4% SRB dissolved in 1% acetic acid for 15 min. All incubations were carried out at room temperature.

[4] = test system: HT-29 cells (colon); assay: SRB toxicity assay, HT-29; format: cell-based; details: Homo sapiens, 96 h exposure, HT-29D
Protocol: as §3, §4

[5] = test system: ckit1 G-quadruplex; assay: FRET melting assay, ckit1 G-quadruplex; format: binding; details: ckit1 G-quadruplex sequence, 0.5 μM compound, maximum error ± 1° C.
Protocol: as §1, §2

[6] = test system: duplex DNA; assay: FRET melting assay, duplex DNA; format: binding; details: duplex sequence, 0.5 μM compound, maximum error ± 1° C.
Protocol: as §1, with “calculated. The difference between the melting temperature at 0.5 μM of the compound and the melting temperature for the blank (ΔTm(0.5 μM)) was used for comparison.” for “calculated.”

[7] = test system: GIST882 cells; assay: SRB toxicity assay, GIST882; format: cell-based; details: Homo sapiens, 96 h exposure
Protocol: as §3, §4

[8] = biological target: telomerase; assay: Modified TRAP assay (telomerase inhibition); format: biochemical
Protocol: The TRAP assay was carried out in three steps with an initial primer elongation step by telomerase, a subsequent removal of the primer bound ligand and a final PCR amplification of the telomerase products. […] The PCR master mix was added to tubes containing freshly prepared compounds at various concentrations and to the negative control containing no drug. The initial elongation step was carried out for 10 min at 30° C., followed by a 94° C. for 5 min and a final maintenance of the mixture at 20° C. To purify the elongated product and to remove the bound ligands the QIAquick nucleotide purification kit (Qiagen) was used according to manufacturer's instructions. […] This was substituted with PCR-grade water in our experiments. The purified extended samples were then subject to PCR amplification. […] Fluorescence from drug samples were normalised against positive control containing protein only. All samples were corrected for background by subtracting the fluorescence reading of negative controls.

[9] = test system: MCF7 cells; assay: Senescence β-galactosidase staining in MCF7 cells; format: cell-based, human; details: at 70 nM
Protocol: Senescence detection and quantification experiments were carried out using a commercially available kit (Senescence β-galactosidase staining kit, Cell Signalling Technology, MA, USA). 1×10^5 cells were seeded in a 35 mm well of a 6-well plate (Nunc, Denmark) in 2 ml of medium and compound to test. The cells were incubated for 24 hours. The medium was then removed and the cells were washed with PBS (1×2 ml). The cells were fixed by treating them with 1 ml of fixative solution (2% formaldehyde and 2% glutaraldehyde in PBS) for 15 minutes at RT. The fixative solution was then removed and the wells washed with PBS (2×2 ml). Freshly prepared staining solution (a mixture of 930 μL of 40 mM citric acid/sodium phosphate (pH 6.0), 0.15 M NaCl and 2 mM MgCl2, 10 μL of 500 mM potassium ferrocyanide, 10 μL of 500 mM potassium ferricyanide and 50 μL of 20 mg/ml 5-bromo-4-chloro-3-indolyl-μD-galactopyranoside in DMF) (1 ml) was added and the cells were incubated overnight. The senescent cells, detected by their blue pigmentation, were quantified under a light microscope.
Senescence phenotype was investigated in MCF7 cells treated for 1 week with sub-cytotoxic concentrations of a selection of compounds.

Row | SMILES | concentration required to increase the melting temperature by 35° C. ([1]; G-quadruplex DNA, FRET) [µM] | FRET-ckit2 ΔTm(0.5 μM) [2] [°C] | IC50 [3] [nM] | IC50 [4] [nM] | FRET-ckit1 ΔTm(0.5 μM) [5] [°C] | FRET-d ΔTm(0.5 μM) [6] [°C] | IC50 [7] [nM] | EC50 [8] [nM] | Senescence (% of cells) after 1 week (MCF7) [9] | FRET-Q ΔTm(0.5 μM) [1] [°C]
1 | CN(C)c1ccc(Nc2c3ccc(NC(=O)CCN4CCCC4)cc3nc3cc(NC(=O)CCN4CCCC4)ccc23)cc1 [BRACO19] | 2.5 | – | – | – | – | – | – | – | – | –
2 | CN(C)CCCNc1cc2c3c(c(NCCCN(C)C)cc4c3c1C(=O)N(CCCN(C)C)C4=O)C(=O)N(CCCN(C)C)C2=O [Compound 12] | – | 36.5 | 510 | 63 | 29.75 | 4.5 | 1300 | 25000 ± 2500 | 35.0 ± 3 (at 70 nM) % of cells | 33.2
3 | CN(C)CCCNc1cc2c3c(ccc4c3c1C(=O)N(CCCN(C)C)C4=O)C(=O)N(CCCN(C)C)C2=O [Compound 13] | – | 29 | – | – | 23.5 | 12.5 | – | 17000 ± 1100 | – | 26.5
4 | CN(C)CCCN1C(=O)c2ccc3c4c(ccc(c24)C1=O)C(=O)N(CCCN(C)C)C3=O [Compound 32, reference compound] | – | 7.75 | – | – | 2.5 | 2.7 | – | – | – | 5.2
5 | CN(C)CCN1C(=O)c2ccc3c4c(ccc(c24)C1=O)C(=O)N(CCN(C)C)C3=O [Compound 33, N,N′-bis(3-(dimethylamino)ethylamino)-1,4,5,8-naphthalenetetracarboxylic acid diimide, reference compound] | – | 7.25 | – | – | 1.25 | 1 | – | – | – | 3.2
